Structures can show the parent of a compound that is named as a salt.
Legend:
[1] = test system: panel of 290 distinct kinases (321 in the larger panel), excluding mutant variants; conditions: kinase selectivity score, 290 distinct kinases; class symbols
mutant BRAF kinase = mutant BRAF kinase (Homo sapiens (Human), UniProt P15056, V600E); conditions: read-out: BRAF V600E Kd, class symbols
Chain of mutant BRAF kinase (P15056 whole entry V600E): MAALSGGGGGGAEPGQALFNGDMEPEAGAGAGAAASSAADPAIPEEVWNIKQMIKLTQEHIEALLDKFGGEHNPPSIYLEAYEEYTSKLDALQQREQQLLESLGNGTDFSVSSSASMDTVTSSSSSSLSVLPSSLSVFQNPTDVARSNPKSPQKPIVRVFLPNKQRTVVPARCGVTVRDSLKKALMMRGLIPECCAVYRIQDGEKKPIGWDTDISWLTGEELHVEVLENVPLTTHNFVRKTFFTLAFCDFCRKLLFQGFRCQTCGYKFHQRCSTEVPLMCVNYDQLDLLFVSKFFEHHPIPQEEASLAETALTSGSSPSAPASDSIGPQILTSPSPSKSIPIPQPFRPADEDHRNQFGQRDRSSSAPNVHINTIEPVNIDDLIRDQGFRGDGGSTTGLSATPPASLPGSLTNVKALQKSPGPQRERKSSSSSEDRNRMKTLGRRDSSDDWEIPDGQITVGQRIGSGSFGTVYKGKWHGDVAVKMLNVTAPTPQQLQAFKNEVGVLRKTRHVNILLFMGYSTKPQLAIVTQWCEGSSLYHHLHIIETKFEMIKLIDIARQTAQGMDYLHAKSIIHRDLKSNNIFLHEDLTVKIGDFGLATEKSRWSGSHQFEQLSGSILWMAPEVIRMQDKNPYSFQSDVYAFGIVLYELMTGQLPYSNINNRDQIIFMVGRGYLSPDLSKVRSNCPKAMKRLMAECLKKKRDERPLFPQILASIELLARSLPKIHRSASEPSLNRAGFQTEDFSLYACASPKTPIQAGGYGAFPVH

SMILES: COc1cc2c(Oc3cccc(NC(=O)Nc4cc(C(C)(C)C)on4)c3)ncnc2cc1OCCN1CCS(=O)(=O)CC1 [Ex 39, 1-(5-tert-butyl-isoxazol-3-yl)-3-(3-{7-[2-(1,1-dioxo-116-thiomorpholin-4-yl)-ethoxy]-6-methoxy-quinazolin-4-yloxy}-phenyl)-urea]
- S35 [1]: C (0.20 < C ≦ 0.40)
- Kd (mutant BRAF kinase): < 250 nM

SMILES: COCCOc1ccc2c(Oc3cccc(NC(=O)Nc4cc(C(C)(C)C)on4)c3)ncnc2c1 [Ex 43, 1-(5-tert-butylisoxazol-3-yl)-3-(3-(7-(2-methoxyethoxy)quinazolin-4-yloxy)phenyl)urea]
- S35 [1]: C (0.20 < C ≦ 0.40)
- Kd (mutant BRAF kinase): < 250 nM

SMILES: COCCOc1cc2c(Sc3cccc(NC(=O)Nc4cc(C(C)(C)C)on4)c3)ncnc2cc1OC [Ex 45, 1-(5-tert-butylisoxazol-3-yl)-3-(3-(7-methoxy-6-(2-methoxyethoxy)quinazolin-4-ylthio)phenyl)urea]
- S35 [1]: C (0.20 < C ≦ 0.40)
- Kd (mutant BRAF kinase): < 250 nM

SMILES: COc1cc2ncnc(Sc3cccc(NC(=O)Nc4cc(C(C)(C)C)on4)c3)c2cc1OC [Ex 46, 1-(5-tert-butylisoxazol-3-yl)-3-(3-(6,7-dimethoxyquinazolin-4-ylthio)phenyl)urea]
- S35 [1]: C (0.20 < C ≦ 0.40)
- Kd (mutant BRAF kinase): < 250 nM

SMILES: COCCOc1cc2ncnc(Sc3cccc(NC(=O)Nc4cc(C(C)(C)C)on4)c3)c2cc1OC [Ex 52, 1-(5-tert-butylisoxazol-3-yl)-3-{3-[6-methoxy-7-(2-methoxyethoxy)quinazolin-4-ylthio]phenyl}urea hydrochloride]
- S35 [1]: C (0.20 < C ≦ 0.40)
- Kd (mutant BRAF kinase): < 250 nM

SMILES: COCCOc1cc2ncnc(Sc3cccc(NC(=O)Nc4cc(C(C)(C)C)on4)c3)c2cc1OCCOC [Ex 53, 1-{3-[6,7-bis(2-methoxyethoxy)quinazolin-4-ylthio]phenyl}-3-(5-tert-butylisoxazol-3-yl)urea hydrochloride]
- S35 [1]: C (0.20 < C ≦ 0.40)
- Kd (mutant BRAF kinase): < 250 nM

SMILES: CCOc1cc2c(Sc3cccc(NC(=O)Nc4cc(C(C)(C)C)on4)c3)ncnc2cc1OC [Ex 56, 1-(5-tert-butylisoxazol-3-yl)-3-(3-(6-ethoxy-7-methoxyquinazolin-4-ylthio)phenyl)urea]
- S35 [1]: B (0.10 < B ≦ 0.20)
- Kd (mutant BRAF kinase): < 250 nM

SMILES: COc1cc2ncnc(Sc3cccc(NC(=O)Nc4cc(C(C)(C)C)on4)c3)c2cc1OCCCN1CCCCC1 [Ex 57, 1-(5-tert-butylisoxazol-3-yl)-3-(3-(7-methoxy-6-(3-(piperidin-1-yl)propoxy)quinazolin-4-ylthio)phenyl)urea]
- S35 [1]: C (0.20 < C ≦ 0.40)
- Kd (mutant BRAF kinase): < 250 nM

SMILES: COc1cc2ncnc(Sc3cccc(NC(=O)Nc4cc(C(C)(C)C)on4)c3)c2cc1OCCCN1CCC(CO)CC1 [Ex 58, 1-(5-tert-butylisoxazol-3-yl)-3-(3-(6-(3-(4-(hydroxymethyl)piperidin-1-yl)propoxy)-7-methoxyquinazolin-4-ylthio)phenyl)urea]
- S35 [1]: D (D > 0.40)
- Kd (mutant BRAF kinase): < 250 nM

SMILES: COc1cc2ncnc(Sc3cccc(NC(=O)Nc4cc(C(C)(C)C)on4)c3)c2cc1OCCCN1CCN(C)CC1 [Ex 59, 1-(5-tert-butylisoxazol-3-yl)-3-(3-(7-methoxy-6-(3-(4-methylpiperazin-1-yl)propoxy)quinazolin-4-ylthio)phenyl)urea]
- S35 [1]: D (D > 0.40)
- Kd (mutant BRAF kinase): < 250 nM

SMILES: COc1cc2ncnc(Sc3cccc(NC(=O)Nc4cc(C(C)(C)C)on4)c3)c2cc1OCCCN1CCN(S(C)(=O)=O)CC1 [Ex 60, 1-(5-tert-butylisoxazol-3-yl)-3-(3-(7-methoxy-6-(3-(4-(methylsulfonyl)piperazin-1-yl)propoxy)quinazolin-4-ylthio)phenyl)urea]
- S35 [1]: C (0.20 < C ≦ 0.40)
- Kd (mutant BRAF kinase): < 250 nM

SMILES: COc1cc2ncnc(Sc3cccc(NC(=O)Nc4cc(C(C)(C)C)on4)c3)c2cc1OCCN1CCC(CO)CC1 [Ex 66, 1-(5-tert-butylisoxazol-3-yl)-3-(3-(6-(2-(4-(hydroxymethyl)piperidin-1-yl)ethoxy)-7-methoxyquinazolin-4-ylthio)phenyl)urea]
- S35 [1]: C (0.20 < C ≦ 0.40)
- Kd (mutant BRAF kinase): < 250 nM
